{"source": "patent US20130115256A1", "about": "“METHODS FOR TREATING OR PREVENTING VASCULAR GRAFT FAILURE” (priority 2010, published 2013)", "key": {"[1]": {"tested_on": "human saphenous vein (HSV)", "experiment": "Sodium nitroprusside-induced relaxation of human saphenous vein in muscle bath", "settings": "for relaxation (percent relaxation): 100 μM pretreatment, phenylephrine 10^-6 M", "experimental": "In preparation for testing vein segment functional viability, HSV rings were weighed and their lengths recorded. To focus on smooth muscle responses, the endothelium was mechanically denuded by rolling the luminal surface of each ring at the tip of a fine vascular forceps before suspension in a muscle bath containing a bicarbonate buffer (120 mM NaCl, 4.7 mM KCl, 1.0 mM MgSO4, 1.0 mM NaH2PO4, 10 mM glucose, 1.5 mM CaCl2, and 25 mM […], pH 7.4) equilibrated with 95% O2 and 5% CO2 at 37° C. The rings were stretched and the length progressively adjusted until maximal tension was obtained. Normalized reactivity was obtained by determining the passive length-tension relationship for each vessel segment. Rings were maintained at a resting tension of 1 g, which produces maximal responses to contractile agonists as previously determined, and equilibrated for 2 hours in buffer. Force measurements were obtained using a Radnoti Glass Technology (Monrovia, Calif.) force transducer (159901A) interfaced with a Powerlab data acquisition system and Chart software (AD Instruments, Colorado Springs, Colo.).\nHSV rings were first contracted with 110 mM KCl (with equimolar replacement of NaCl in bicarbonate buffer) and the generated force was measured. 110 mM KCl causes membrane depolarization, leading to contraction of vessels containing functionally viable smooth muscle. After multiple KCl challenges, rings were washed and allowed to equilibrate in bicarbonate solution for 30 min, and then contracted with phenylephrine (PE, 10^−7-10^−6 M). Rings were relaxed with a cumulative log dose of sodium nitroprusside (SNP), a nitric oxide donor, and the force generated was recorded. All rings were again washed and equilibrated in buffer for 15 minutes. Rings were then incubated with either buffer alone or buffer plus 100 μM of MMI-0100 ([…] (SEQ ID NO: 1)) for 2 hours, followed by treatment with the same doses of PE and SNP, and the forces generated again recorded. Measured force was normalized for ring weight and length and percent relaxation was calculated; force generated with 10^−6M of PE was set as 0% relaxation.\nThe enhancing effect of MMI-0100 ([…]; SEQ ID NO: 1) on smooth muscle relaxation was examined by pre-treating harvested human saphenous vein (HSV) with MMI-0100 ([…]; SEQ ID NO: 1) before SNP treatment. Segments of human saphenous vein (HSV) were equilibrated in a muscle bath and pretreated with a control solution (0.01M phosphate-buffered solution, PBS) or MMI-0100 ([…] (SEQ ID NO: 1); 30 μM, 2 hrs), contracted with norepinephrine. and relaxed with increasing doses of sodium nitroprusside (SNP, 0-1 μM). Percentage of relaxation at 0, 0.01, 0.1, and 1.0 μM of SNP was measured. […]"}, "[2]": {"target": "T1, MKK4 (Homo sapiens, UniProt P45985)", "T1 construct": "purchased Millipore (KinaseProfiler service)", "T1 sequence (P45985 1-399)": "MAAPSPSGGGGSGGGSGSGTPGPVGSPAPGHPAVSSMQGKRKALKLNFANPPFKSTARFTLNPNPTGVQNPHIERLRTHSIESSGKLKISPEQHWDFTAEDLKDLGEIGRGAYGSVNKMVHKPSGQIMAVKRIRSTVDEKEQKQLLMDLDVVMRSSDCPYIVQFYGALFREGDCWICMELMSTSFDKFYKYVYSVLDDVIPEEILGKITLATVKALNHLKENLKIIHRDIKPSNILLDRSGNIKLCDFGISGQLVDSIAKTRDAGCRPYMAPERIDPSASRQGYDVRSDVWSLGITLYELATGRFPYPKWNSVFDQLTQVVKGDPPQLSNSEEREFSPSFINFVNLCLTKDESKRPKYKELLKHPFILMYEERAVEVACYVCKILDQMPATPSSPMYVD", "experiment": "MKK4 radiometric kinase assay", "assay_type": "biochemical", "settings": "MMI-0100 100 μM; remaining kinase activity", "from_the_text": "(§1) A commercial radiometric assay service was used to test the specificity and potency of MMI-0100 ([…]; SEQ ID NO: 1) by measuring its half maximal inhibitory concentrations (IC50). This quantitative assay measures how much MK2 inhibitor (MMI-0100; […] (SEQ ID NO: 1)) is needed to inhibit 50% of a given biological process or component of a process (i.e., an enzyme, cell, or cell receptor). Specifically, in these assays, a positively charged substrate is phosphorylated with a radiolabeled phosphate group from an ATP if the kinase is not inhibited by an inhibitor peptide. The positively charged substrate then is attracted to a negatively charged filter membrane, quantified with a scintillation counter, and compared to a 100% activity control. ATP concentrations within 15 μM of the apparent Km for ATP were chosen since an ATP concentration near the Km may allow for the kinases to have the same relative amount of phosphorylation activity. The individual conditions for each radiometric assay are as follows.\nThe reaction was initiated by the addition of the MgATP. After incubation for 40 minutes at room temperature, 5 μl of the incubation mix was used to initiate the JNK radiometric assay described above.\nIC50 values for inhibitor peptides were determined using Millipore's IC50 Profiler Express service. The IC50 value was estimated from a 10-point curve of one-half log dilutions. […]"}, "[3]": {"tested_on": "JNK", "experiment": "JNK radiometric kinase assay", "assay_type": "biochemical", "settings": "MMI-0100 100 μM; remaining kinase activity", "from_the_text": "as §1, with “The individual conditions for each radiometric assay are as follows.” left out\nFor the JNK (c-Jun N-terminal Kinase) radiometric assay, 5-10 mU of JNK was incubated with 50 mM Tris pH 7.5, 0.1 mM EGTA, 0.1% b-mercaptoethanol, 3 μM ATF2 (a substrate for JNK), 10 mM MgAcetate, and 10 μM of [y-^33P-ATP] in the final reaction volume of 25 μl. […] The washed P30 filtermat was dried and its radioactivity was measured by scintillation counter.\nIC50 values for inhibitor peptides were determined using Millipore's IC50 Profiler Express service. […]"}}, "data": [{"sequence": "YARAAARQARAKALARQLGVAA [MMI-0100]", "values": [{"measurement": "increase in relaxation compared to HSV pretreated with control solution", "setting": "[1]; 30 μM, 2 hrs pretreatment, norepinephrine contraction, SNP 0-1 μM, n=3", "result": "about 40%"}, {"measurement": "relaxation (percent relaxation)", "setting": "[1]; 10^-7 M SNP (untreated control 72.768±6.99)", "result": "92.54±3.09"}, {"measurement": "relaxation (percent relaxation)", "setting": "[1]; 10^-8 M SNP (untreated control 10.825±5.62)", "result": "25.622±6.38"}, {"measurement": "Percent Activity, MKK4", "setting": "[2]", "result": 90, "unit": "%"}, {"measurement": "Percent Activity, JNK", "setting": "[3]", "result": 92, "unit": "%"}]}]}
